In ChEMBL document CHEMBL1133749, “Water-soluble, core-modified porphyrins as novel, longer-wavelength-absorbing sensitizers for photodynamic therapy” (J Med Chem, 2000):

What was measured:
Mus musculus [1] = experiment: Tested in vivo for times to mm**3 tumor volume against BALB/c mice bearing COLO-26 tumors at a dose 3.25 mg/Kg; type: functional
Murine T-cell line = experiment: Compound at >50 ug/mL was tested for photoactivity against murine T-cell line; No significant photoactivity; type: functional, cell-based; conditions: Mus musculus
Colon 26 [2] = experiment: Lethal dose required for photodynamic therapy against COLO-26 cells in culture; type: toxicity, cell-based
Mus musculus [3] = experiment: Tested in vivo for times to mm**3 tumor volume against BALB/c mice bearing COLO-26 tumors at a dose 10 mg/Kg; type: functional
Colon 26 [4] = experiment: Photodynamic therapy against COLO-26 cells in culture; type: cell-based; conditions: Mus musculus, Colon 26, light or radiation study; read-out: LD50 (the source's name)

Structure (SMILES) | Time (Mus musculus [1]) [h] | NS (Murine T-cell line) | CC50 (Colon 26 [2]; Mus musculus, Colon 26, light or radiation study, read-out: LD50 (the source's name)) [µg/mL] | LD90 (Colon 26 [2]; mouse) [µg/mL] | Time (Mus musculus [3]) [h] | CC50 (Colon 26 [4]) [µg/mL]
O=S(=O)([O-])c1ccc(-c2c3nc(c(-c4ccc(S(=O)(=O)[O-])cc4)c4ccc(s4)c(-c4ccc(S(=O)(=O)[O-])cc4)c4nc(c(-c5ccc(S(=O)(=O)[O-])cc5)c5ccc2s5)C=C4)C=C3)cc1.[Na+].[Na+].[Na+].[Na+] | 198 | No significant photoactivity | < 25 | > 50 | 276 | 
O=S(=O)([O-])c1ccc(-c2c3nc(c(-c4ccc(S(=O)(=O)[O-])cc4)c4ccc([nH]4)c(-c4ccc(S(=O)(=O)[O-])cc4)c4ccc([nH]4)c(-c4ccc(S(=O)(=O)[O-])cc4)c4nc2C=C4)C=C3)cc1.[Na+].[Na+].[Na+].[Na+] |  | No significant photoactivity |  |  |  | > 100
